Data published in patent US8415271B2, “Biofertilizer formulation” (priority 2007, dated 2013).

Tested on: wheat
Experiment: Field grown wheat, harvest parameters
Type: in vivo, Triticum aestivum
Conditions: seeds not coated
Procedure: Effect of the psychrorphilic biofertilizer was tested on field conditions on wheat cultivation in Victoria City, Temuco, Chile. Wheat seeds were disinfected and coated with the psychrophilic bacterial biofertilizer of the present invention as described in Example 3. Control seeds were disinfected and treated with water. A field of one hectare was directly sowed with the seeds using a random block experimental design with four repetitions per treatments. Further, total yield after the harvest was measured and the yield per unit area of the crop field was calculated.

## O=P(=O)OP(=O)=O [Strain P2O5, P2O5]
50 Kg P2O5/ha
  Weight 1000 grains: 33 ± 3 g
  Yield: 4.8 ± 0.5 ton/ha
100 Kg P2O5/ha
  Weight 1000 grains: 37 ± 3 g
  Yield: 5.1 ± 0.3 ton/ha
150 Kg P2O5/ha
  Weight 1000 grains: 35 ± 3 g
  Yield: 5.0 ± 0.4 ton/ha
